Data on four molecules can be found in patent publication US9801918B2, “Methods of treatment using extracts of Anisomeles heyneana” (Council of Scientific & Industrial Research, priority 2011, dated 2017).

One assay concerns M. tuberculosis. Put plainly: Anti-mycobacterial activity (inhibition of growth of M. tuberculosis). Format: cell-based. To be noted: concentration exhibiting 90% inhibition against growth of M. tuberculosis, 'Not active' at 100 μg/ml; for IC90: Mycobacterium tuberculosis, read-out: IC90 value determined against M. tuberculosis.
The test system of assay [1] is human monocytic leukaemia Thp-1 cell lines. Put plainly: Anti proliferative activity-MTT cell proliferation assay on human Thp-1 cell line. It counts as cell-based. As to conditions: for % Inhibition on Thp-1 cell line at 100 μg/ml / inhibition at 100 µg/mL: 72 h, MTT, average±standard deviation, triplicate, 100 μg/ml; for inhibition at 100 µg/mL: Homo sapiens, THP-1, 72 h. (In general: Tetrazolium assays rely on reduction of a dye to a coloured formazan, in cell work by metabolically active cells.)

In brackets after ≈: the same amount, converted by molar mass.

As usually defined, the inhibition is the change of the read-out against control, counted positive when it falls. A lower inhibition goes with little suppression. What is called IC90 is the concentration needed for an effect of 90%.

For `C[C@]12CCC[C@](C)(C(=O)O)[C@@H]1CC[C@@]13C[C@@H](CC[C@@H]12)[C@@](O)(CO)C3` [Compound 2, phyllocladan-16α,17-dihydroxy-19-oic acid], in the assay with M. tuberculosis, the “IC90 value determined against M. tuberculosis” value is “Not active^c”. Further, in assay [1], the “% Inhibition on Thp-1 cell line at 100 μg/ml” value amounted to 59.02 ± 0.8725% and the inhibition at 100 µg/mL is 59 to 97%. Besides, the “anti proliferative activity (in words)” value in assay [1] (qualitative statement) was “comparable to well known drug, paclitaxel”.
`NNC(=O)c1ccncc1` [Isoniazid, reference compound]: the IC90 with M. tuberculosis was 0.05 ± 0.003 µg/mL (≈ 0.365 µM).
On to `C=C1C(=O)O[C@H]2/C=C(\C)C[C@@H]3C=C(CC/C=C(\C)CC[C@H]12)C(=O)O3` [Compound 1, (1R,3E,5S,9R,12E)-3,12-Dimethyl-8-methylene-6,18-dioxatricyclo[14.2.1.05,9]nonadeca-3,12,16(19)-triene-7,17-dione], for which the IC90 with M. tuberculosis stood at 6.53 µg/mL (≈ 19.9 µM). Further, the “% Inhibition on Thp-1 cell line at 100 μg/ml” value in assay [1] was found to be 96.4 ± 0.4592%.
In the case of `CC(=O)O[C@H]1C(=O)[C@@]2(C)[C@H]([C@H](OC(=O)c3ccccc3)[C@]3(O)C[C@H](OC(=O)[C@H](O)[C@@H](NC(=O)c4ccccc4)c4ccccc4)C(C)=C1C3(C)C)[C@]1(OC(C)=O)CO[C@@H]1C[C@@H]2O` [Paclitaxel, reference compound], the inhibition at 100 µg/mL in assay [1] is 61%.
